Assay results taken from patent US20100184026A1, “Companion Diagnostic Assays For Endothelin Receptor Antagonists” (ABBOTT LABORATORIES, priority 2009, published 2010).

Experiments:
[1] = tested on: mouse MC3T3 osteoblast cell line; assay: ELISA assays of secreted PAI-1, OPG and IL-6 in osteoblast supernatants; type: cell-based
Text: (§1) Mouse MC3T3 pre-osteoblastic cells (subclone 4) were purchased from ATCC (Manassis, Va.) and propagated in αMEM media without ascorbic acid (Invitrogen, Carlsbad, Calif.) supplemented with 10% FBS (Invitrogen). Human Mesenchymal Stem Cells (MSCs) were purchased from Cambrex (Walkersville, Md.) and propagated according in MSCGM™ media (Cambrex). To initiate differentiation of the MSC into human osteoblasts, the growth media was replaced by osteogenic differentiation medium (OGM, Cambrex).
Mouse MC3T3 osteoblast cells were propagated as set out above, and at times indicated were harvested and spun at 250×g for 10 minutes at room temperature. The clarified supernatants were aliquoted and frozen until analyzed. 200 microliters of each sample was tested in quadruplicate by commercially available ELISA assay kits for PAI-1 (Molecular Innovations, Southfield, Mich.), OPG (Biomedica, San Diego, Calif.) and IL-6 (Ray Biotech, Norcross, Ga.). The ELISA tests were performed according to the manufacturer's instructions. Data from these tests are shown in FIG. 1 (PAI-1), FIG. 2 (OPG) and FIG. 3 (IL-6).

osteoblastic metastases = conditions: Yin et al. 2003; cited from earlier work
[2] = tested on: Mouse preosteoblastic MC3T3 cells; assay: Microarray analysis of gene expression in ET-treated mouse osteoblasts; type: cell-based; conditions: for # Genes Blocked by ABT-627, percent of genes induced by ET: drug added 1 hour prior to ET; for Induced by ET (number of genes): genes regulated ≧1.5-fold, p ≦0.01
Text: as §1
(§2) Mouse preosteoblastic MC3T3 cells as well as primary human osteoblasts were treated with ET, from Sigma (St. Louis, Mo.), for 2, 4, and 6 hours in the absence or presence of the ETa receptor antagonist ABT-627, from Abbott Laboratories (Abbott Park, Ill.). The drug was added 1 hour prior to the addition of ET.
(§3) Total RNA was extracted from the treated cell lines and purified on RNeasy columns (Qiagen, Valencia, Calif.). Labeled cRNA was prepared according to the microarray manufacturer Affymetrix's protocol and hybridized to either mouse 430A 2.0 or human U133A 2.0 arrays (Affymetrix, Santa Clara, Calif.). Gene expression fold changes for each treatment were calculated by combining three biological replicates for each treatment using the Rosetta Resolver's Affymetrix error model software and building a ratio from the resulting values. All genes regulated ≧1.5-fold with a p-value of ≦0.01 were retained for further analysis. Conventional two-dimensional clustering was then performed by using the agglomerative hierarchical clustering algorithm. The Euclidean distance was used as the similarity metric.

[3] = tested on: metastatic hormone-refractory prostate cancer; conditions: patients with metastatic hormone-refractory prostate cancer; Nelson et al. 2003; cited from earlier work
[4] = tested on: primary human osteoblasts; assay: Microarray analysis of gene expression in ET-treated primary human osteoblasts; type: cell-based; conditions: ET-1 treatment
Text: as §1, §2
as §3, with “All genes regulated ≧1.5-fold with a p-value of ≦0.01 were retained for further analysis. Conventional two-dimensional clustering was then performed by using the agglomerative hierarchical clustering algorithm. The Euclidean distance was used as the similarity metric.” left out

[5] = endothelin in the presence of ABT-627

## CCCCN(CCCC)C(=O)CN1C[C@H](c2ccc3c(c2)OCO3)[C@@H](C(=O)O)[C@@H]1c1ccc(OC)cc1 [ABT-627, (2R,3R,4S)-(+)-2-(4-Methoxyphenyl)-4-(1,3-benzodioxol-5-yl)-1-(N,N-di(n-butyl)aminocarbonylmethyl)-pyrrolidine-3-carboxylic acid]
[1]; [5]
  Endothelin-induced expression of IL-6 (ELISA): substantial suppression
  Endothelin-induced expression of OPG (ELISA): substantial suppression
  Endothelin-induced expression of PAI-1 (ELISA): substantial suppression
Osteoblastic metastases
  Metastatic growth: suppressed
[2]; 2 hr ET
  # Genes Blocked by ABT-627, percent of genes induced by ET: (96%)
[2]; 4 hr ET
  # Genes Blocked by ABT-627, percent of genes induced by ET: (83%)
[2]; 6 hr ET
  # Genes Blocked by ABT-627, percent of genes induced by ET: (97%)
[2]; ET in presence of ABT-627
  Induction by ET of suppression-of-apoptosis genes (Nur77, Flt1, NFATc1): the induction was blocked
[2]; all three timepoints (2, 4, 6 hours), pre-treatment before ET
  Effect of pre-treatment on ET gene induction events: abrogated almost all of these gene induction events
[2]; antagonist alone, no ET
  Gene expression changes caused by antagonist alone: very few gene expression changes
[2]; pre-treatment with ABT-627
  Induction by ET-1 of osteoblastic maturation genes (OPG, COX-2, Dmp1, Tgfbi, CTGF, Klf10): blocked
[3]
  Time to disease progression: extended

## CC[C@H](C)[C@H](NC(=O)[C@H](CC(=O)O)NC(=O)[C@H](CC(C)C)NC(=O)[C@H](Cc1c[nH]cn1)NC(=O)[C@@H]1CSSC[C@H](N)C(=O)N[C@@H](CO)C(=O)N[C@H]2CSSC[C@H](NC(=O)[C@H](CCC(=O)O)NC(=O)[C@H](CCCCN)NC(=O)[C@H](CC(=O)O)NC(=O)[C@H](CCSC)NC(=O)[C@H](CC(C)C)NC(=O)[C@H](CO)NC(=O)[C@H](CO)NC2=O)C(=O)N[C@@H](C(C)C)C(=O)N[C@@H](Cc2ccc(O)cc2)C(=O)N[C@@H](Cc2ccccc2)C(=O)N1)C(=O)N[C@H](C(=O)N[C@@H](Cc1c[nH]c2ccccc12)C(=O)O)[C@@H](C)CC [ET]
[1]; treatment with endothelin
  Expression of IL-6 (ELISA): strongly induced
  Expression of OPG (ELISA): strongly induced
  Expression of PAI-1 (ELISA): strongly induced
[2]; 2 hr ET treatment
  # Genes Down-regulated by ET: 423
  Induced by ET (number of genes): 608
[2]; 4 hr ET treatment
  # Genes Down-regulated by ET: 295
  Induced by ET (number of genes): 472
[2]; 6 hr ET treatment
  # Genes Down-regulated by ET: 95
  Induced by ET (number of genes): 194
[2]; ET treatment
  Expression of suppression-of-apoptosis genes (Nur77, Flt1, NFATc1): induced
[2]; mouse osteoblasts, ET-1 treatment
  Expression of genes coding for secreted proteins (PAI-1, uPA, TGFbeta2, IL-6, IL-8): strongly upregulated
[4]
  Expression of genes coding for secreted proteins (PAI-1, uPA, TGFbeta2, IL-6, IL-8): strongly upregulated
